Test results: US4898867A, “Thienopyrimidine derivaties as aldose-reductase inhibitors” (Taiho Pharmaceutical Company, Limited, priority 1987, dated 1990)
pIC50: −log10 of the molar value. Where a name gives a salt, the structure may show the parent alone.

Molecular target: T1, aldose-reductase (AR) (Rattus norvegicus, UniProt P07943)
T1 construct: The supernatant obtained was used as AR; from tissue; host or cells: lenses of male Wistar rats (10000 rpm supernatant of homogenate)
Test: Aldose-reductase inhibitory activity (decrease in absorbance of NADPH at 340 nm, glyceraldehyde substrate)
Assay type: biochemical, Wister male rats (lenses)
Details: rat lens AR supernatant, 0.1M phosphate buffer pH 6.2, 30° C.
Experimental: The aldose-reductase (AR) activity was evaluated by determining spectrophotometrically the decrease in absorbance of NADPH at 340 nm due to the reduction of the substrate, i.e., glyceraldehyde according to the method described in Biochemical Pharmacology 25, pp 2505-2513 (1976).
The lenses of Wister male rats was homogenized with 0.5 ml of 0.1M phosphate buffer (pH 6.2) per lens by a glass homogenizer and the homogenate was centrifuged at 10000 rpm for 10 minutes. The supernatant obtained was used as AR.
The determination of the AR activity was conducted as follows. A 700 μl quantity of 0.1M phosphate buffer (pH 6.2), 100 μl of 2.21 mM NADPH, 100 μl of AR and 5 μl of DMSO containing each of test compounds in varying concentrations were placed in a cell for test sample, and 800 μl of 0.1M phosphate buffer (pH 6.2), 100 μl of 2.21 mM NADPH, 100 μl of AR and 5 μl of DMSO were placed in a cell for control. Then the solutions in the cells were thoroughly mixed together and the mixtures were maintained at 30° C. Then 100 μl of 100 mM glyceraldehyde maintained at 30° C. was added to a cell for test sample and quickly blended to initiate the reaction. The AR activity was determined from the rate of change of absorbance per minute in the linear part of variations of absorbance during a period of from 1 minute to three minutes after the start of the reaction, and a dose-response curve was drawn.

Work on `Cc1sc2c(c1C)c(=O)n(Cc1ccc(Cl)cc1)c(=O)n2CC(=O)O` [Compound I-1, 1-carboxymethyl-3-(4-chlorobenzyl)-5,6-dimethylthieno[2,3-d]pyrimidin-2,4(1H, 3H)-dione] yielded a pIC50 of 7.12.

For `Cc1sc2c(c1C)c(=O)n(Cc1ccc(Cl)cc1Cl)c(=O)n2CC(=O)O` [Compound I-2], the pIC50 was 7.70.

Work on `CC(C)c1cc2c(=O)n(Cc3ccc(Cl)c(Cl)c3)c(=O)n(CC(=O)O)c2s1` [Compound I-3] yielded a pIC50 of 7.59.

`CC(C)c1cc2c(=O)n(Cc3ccc(Cl)cc3Cl)c(=O)n(CC(=O)O)c2s1` [Compound I-4] showed a pIC50 of 7.77.

In the case of `Cc1csc2c1c(=O)n(Cc1ccc(Cl)c(Cl)c1)c(=O)n2CC(=O)O` [Compound I-5], the pIC50 was 7.52.

Compound `O=C(O)Cn1c(=O)n(Cc2ccc(Cl)cc2Cl)c(=O)c2c3c(sc21)CCCC3` [Compound I-8] has a pIC50 of 7.38.

Work on `Cc1c(Br)sc2c1c(=O)n(Cc1ccc(Cl)c(Cl)c1)c(=O)n2CC(=O)O` [Compound I-10] yielded a pIC50 of 7.59.

In the case of `Cc1c(Cl)sc2c1c(=O)n(Cc1ccc(Cl)c(Cl)c1)c(=O)n2CC(=O)O` [Compound I-11], the pIC50 was 7.60.

Compound `O=C(O)Cn1c(=O)n(Cc2ccc(Br)cc2F)c(=O)c2cc(-c3ccccc3)sc21` [Compound I-13] has a pIC50 of 7.47.

With `Cc1sc2c(c1C)c(=O)n(Cc1ccc(Br)cc1F)c(=O)n2CC(=O)O` [Compound I-14] the pIC50 was 7.68.

`O=C(O)Cn1c(=O)n(Cc2ccc(Br)cc2F)c(=O)c2c3c(sc21)CCCC3` [Compound I-15] gave a pIC50 of 7.64.

`O=C(O)Cn1c(=O)n(Cc2ccc(Br)cc2F)c(=O)c2cc(C3CCCC3)sc21` [Compound I-16] gave a pIC50 of 7.52.

Compound `CC(C)c1cc2c(=O)n(Cc3ccc(Br)cc3F)c(=O)n(CC(=O)O)c2s1` [Compound I-17] has a pIC50 of 7.66.

`O=C(O)Cn1c(=O)n(Cc2ccc(Br)cc2F)c(=O)c2ccsc21` [Compound I-19] was tested, and the pIC50 was 7.70.

`Cc1csc2c1c(=O)n(Cc1ccc(Br)cc1F)c(=O)n2CC(=O)O` [Compound I-20, 1-carboxymethyl-3-(4-bromo-2-fluorobenzyl)-5-methylthieno[2,3-d]pyrimidin-2,4(1H, 3H)-dione] gave a pIC50 of 7.62.

Work on `O=C(O)Cn1c(=O)n(Cc2ccc(Br)cc2F)c(=O)c2cc(Cl)sc21` [I-24 (Lysine salt)] yielded a pIC50 of 7.60.
